Results published in ChEMBL document CHEMBL3600362, “Synthesis of CNS active thyrotropin-releasing hormone (TRH)-like peptides: Biological evaluation and effect on cognitive impairment induced by cerebral ischemia in mice” (Bioorg Med Chem, 2015).
pEC50, pIC50: −log10 of the molar value. The source made the active and inactive calls. The calls are words filed in the database; no cut-off is given here.

What was measured:
[1] = target: T1, Thyrotropin-releasing hormone receptor 2 (Mus musculus, UniProt Q9ERT1); experiment: Agonist activity at mouse TRH-R2 expressed in HEK293 cells assessed as induction of changes in intracellular Ca2+ level by FLIPR method; type: functional, cell-based
T1 sequence (Q9ERT1 whole entry): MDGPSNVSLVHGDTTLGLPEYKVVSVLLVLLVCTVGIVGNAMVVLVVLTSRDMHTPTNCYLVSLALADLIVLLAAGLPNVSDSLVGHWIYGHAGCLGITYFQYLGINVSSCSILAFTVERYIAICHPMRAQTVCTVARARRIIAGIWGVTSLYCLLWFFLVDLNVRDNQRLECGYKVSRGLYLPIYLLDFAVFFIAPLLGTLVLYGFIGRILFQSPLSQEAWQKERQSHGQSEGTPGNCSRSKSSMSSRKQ

[2] = target: T1, Thyrotropin-releasing hormone receptor 2; experiment: Displacement of [3H]-1-MeHis-TRH from mouse TRH-R2 expressed in HEK293 cells incubated up to 4 hrs by scintillation counting method; type: cell-based
Mus musculus = experiment: Reduction in pentobarbital-induced sleeping time in Swiss mouse at 10 umol/kg, iv; type: functional
[3] = target: T2, Thyrotropin-releasing hormone receptor (Mus musculus, UniProt P21761); experiment: Agonist activity at mouse TRH-R1 expressed in HEK293 cells assessed as induction of changes in intracellular Ca2+ level by FLIPR method; type: functional, cell-based
T2 sequence (P21761 whole entry): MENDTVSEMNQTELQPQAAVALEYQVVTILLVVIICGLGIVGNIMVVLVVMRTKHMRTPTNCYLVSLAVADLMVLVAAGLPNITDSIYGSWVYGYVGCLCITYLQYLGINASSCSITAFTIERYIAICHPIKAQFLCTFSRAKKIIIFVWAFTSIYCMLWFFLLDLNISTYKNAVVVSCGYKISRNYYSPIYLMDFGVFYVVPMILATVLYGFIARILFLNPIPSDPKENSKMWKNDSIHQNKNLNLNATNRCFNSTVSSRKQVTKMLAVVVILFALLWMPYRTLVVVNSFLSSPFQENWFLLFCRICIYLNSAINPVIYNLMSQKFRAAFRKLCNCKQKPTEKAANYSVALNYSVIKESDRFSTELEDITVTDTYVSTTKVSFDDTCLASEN

[4] = target: T2, Thyrotropin-releasing hormone receptor; experiment: Displacement of [3H]-1-MeHis-TRH from mouse TRH-R1 expressed in HEK293 cells incubated up to 4 hrs by scintillation counting method; type: cell-based
HEK293 = experiment: Selectivity index, ratio of EC50 for agonist activity at mouse TRH-R1 expressed in HEK293 cells to EC50 for agonist activity at mouse TRH-R2 expressed in HEK293 cells; type: cell-based
[5] = Half life in human plasma; type: ADME, cell-free
TRH-degrading ectoenzyme = target: T3, TRH-degrading ectoenzyme (Mus musculus, UniProt Q8K093); experiment: Stability assessed as mouse recombinant TRH-degrading ectoenzyme-mediated compound degradation at 1 mM measured within 18 hrs by HPLC method; type: ADME; settings: read-out: Drug degradation
T3 sequence (Q8K093 whole entry): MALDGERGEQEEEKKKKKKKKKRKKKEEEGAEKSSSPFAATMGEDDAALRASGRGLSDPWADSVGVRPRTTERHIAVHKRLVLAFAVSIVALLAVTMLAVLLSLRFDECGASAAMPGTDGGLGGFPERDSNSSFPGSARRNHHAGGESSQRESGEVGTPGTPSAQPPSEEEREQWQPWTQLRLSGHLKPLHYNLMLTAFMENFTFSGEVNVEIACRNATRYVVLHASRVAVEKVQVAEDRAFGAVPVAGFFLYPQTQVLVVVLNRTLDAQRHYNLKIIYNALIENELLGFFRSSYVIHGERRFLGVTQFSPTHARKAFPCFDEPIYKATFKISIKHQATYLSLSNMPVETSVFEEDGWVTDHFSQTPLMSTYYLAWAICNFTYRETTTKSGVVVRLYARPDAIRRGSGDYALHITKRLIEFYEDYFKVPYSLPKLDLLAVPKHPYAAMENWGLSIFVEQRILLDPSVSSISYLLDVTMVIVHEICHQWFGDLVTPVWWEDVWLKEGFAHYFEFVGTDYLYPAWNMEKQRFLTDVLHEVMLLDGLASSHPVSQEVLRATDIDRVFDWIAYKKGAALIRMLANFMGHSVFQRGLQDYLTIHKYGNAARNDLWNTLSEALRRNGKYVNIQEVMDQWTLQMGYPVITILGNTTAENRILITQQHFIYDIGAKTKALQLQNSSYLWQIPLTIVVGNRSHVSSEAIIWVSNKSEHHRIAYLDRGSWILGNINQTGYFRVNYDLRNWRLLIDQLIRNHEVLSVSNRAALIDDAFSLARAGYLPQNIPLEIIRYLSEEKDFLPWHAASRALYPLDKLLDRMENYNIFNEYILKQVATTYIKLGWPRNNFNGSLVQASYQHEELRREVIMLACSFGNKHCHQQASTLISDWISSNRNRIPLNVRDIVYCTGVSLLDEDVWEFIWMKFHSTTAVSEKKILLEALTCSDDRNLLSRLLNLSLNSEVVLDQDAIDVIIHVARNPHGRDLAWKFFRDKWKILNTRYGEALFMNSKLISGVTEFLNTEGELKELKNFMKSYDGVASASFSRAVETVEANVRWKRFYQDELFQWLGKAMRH

Rattus norvegicus [6] = experiment: Neuroprotective activity in Sprague-Dawley rat model of MCA occlusion-induced memory impairment assessed as minimum latency time during acquisition trial at 10 umol/kg, iv by passive avoidance test (reference value: 49 secs); type: functional
Rattus norvegicus [7] = experiment: Inhibition of lipid peroxidation in brain homogenates of Sprague-Dawley rat model of 2 hrs MCA occlusion-induced focal cerebral ischemia assessed as reduction in MDA levels at 10 umol/kg, iv administered immediately after reperfusion and measured 22 hrs after reperfusion by TBARS assay; type: functional, organism-based
Rattus norvegicus [8] = experiment: Neuroprotective activity in Sprague-Dawley rat model of MCA occlusion-induced memory impairment assessed as maximum latency time during acquisition trial at 10 umol/kg, iv by passive avoidance test (reference value: 49 secs); type: functional
Rattus norvegicus [9] = experiment: Reduction in cognitive impairment in Sprague-Dawley rat assessed as increase in number of entries to platform zone during retention trial at 10 umol/kg, iv measured on day 6 by Morris water maze test (reference value: 0.5); type: functional
Rattus norvegicus [10] = experiment: Effect on mean latency time during acquisition trial in Sprague-Dawley rat model of MCA occlusion-induced memory impairment at 10 umol/kg, iv by passive avoidance test; type: ADME, organism-based; settings: in vivo
Rattus norvegicus [11] = experiment: Increase in neuronal survival in Sprague-Dawley rat model of MCA occlusion-induced focal cerebral ischemia assessed as increase in neuronal density at hippocampal CA1 regions at 10 umol/kg, iv by Cresyl violet staining based microscopy; type: functional, organism-based
Rattus norvegicus [12] = experiment: Reduction in neurological score in Sprague-Dawley rat model of MCA occlusion-induced focal cerebral ischemia at 10 umol/kg, iv administered immediately after reperfusion and measured 22 hrs after reperfusion up to 7 days; type: functional, organism-based
Rattus norvegicus [13] = experiment: Reduction in volume of infarction in Sprague-Dawley rat model of MCA occlusion-induced focal cerebral ischemia assessed as infarcts volume at 10 umol/kg, iv administered immediately after reperfusion and measured 22 hrs after reperfusion (reference value: 237.69 +/- 4.08 mm3); type: functional
Rattus norvegicus [14] = experiment: Effect on mean latency time during retention trial in Sprague-Dawley rat model of MCA occlusion-induced memory impairment at 10 umol/kg, iv by passive avoidance test; type: functional, organism-based
[15] = target: T4, Thyrotropin-releasing hormone-degrading ectoenzyme (Mus musculus, UniProt Q8K093); experiment: Stability assessed as mouse recombinant TRH-degrading ectoenzyme-mediated compound degradation up to 18 hrs by HPLC method; type: ADME
T4 sequence (Q8K093 whole entry): T3 sequence (Q8K093 whole entry)

Rattus norvegicus [16] = experiment: Reduction in cognitive impairment in Sprague-Dawley rat assessed as reduction in latency to first entry to platform zone during retention trial at 10 umol/kg, iv measured on day 6 by Morris water maze test (reference value: 95.76 secs); type: functional

SMILES | pEC50 [1] | pIC50 [2] | inhibition in vivo at 10 µmol/kg (Mus musculus) | pEC50 [3] | pIC50 [4] | Ratio EC50 (HEK293) | also measured
Cc1cnc(C(=O)N[C@@H](Cc2nc[nH]c2Br)C(=O)N2CCC[C@H]2C(N)=O)cn1 | 7.40 | < 4.30 | 23.2% | 6.30 | < 4.30 | 12.4 | 
CC(C)c1nc(C[C@H](NC(=O)C2CCCCN2)C(=O)N2CCC[C@H]2C(N)=O)c[nH]1 (single isomer, unassigned) | 6.11 | < 4.30 | 42.7% | 6.00 | < 4.30 | 1.3 | 
NC(=O)[C@@H]1CCCN1C(=O)[C@H](Cc1nc[nH]c1Cl)NC(=O)c1cnccn1 | 6.28 | < 4.30 | 29.8% | 4.71 | < 4.30 | 36.5 | 
Cc1cnc(C(=O)N[C@@H](Cc2nc(I)n(Cc3ccccc3)c2I)C(=O)N2CCC[C@H]2C(N)=O)cn1 | 7.30 | < 4.30 | 50.1% | 6.13 | < 4.30 | 14.8 | 
Cc1cnc(C(=O)N[C@@H](Cc2nc(Br)[nH]c2Br)C(=O)N2CCC[C@H]2C(N)=O)cn1 | 7.00 | < 4.30 | 29% | 7.11 | < 4.30 | 0.77 | 
NC(=O)[C@@H]1CCCN1C(=O)[C@H](Cc1nc[nH]c1Br)NC(=O)c1cnccn1 | 7.32 | < 4.30 | 32.8% | 5.40 | < 4.30 | 82.9 | 
NC(=O)[C@@H]1CCCN1C(=O)[C@H](Cc1nc(Br)[nH]c1Br)NC(=O)c1nccnc1N | 6.54 | < 4.30 | 12.2% | 5.85 | < 4.30 | 4.8 | 
NC(=O)[C@@H]1CCCN1C(=O)[C@H](Cc1cnc[nH]1)NC(=O)[C@@H]1CCC(=O)N1 [PROTIRELIN] | 9.28 | 8.15 |  |  | 8.59 |  | half-life [5]: 2 min; metabolised at 18 h, 1000 µM (TRH-degrading ectoenzyme): 80%
CCCc1nc(C[C@H](NC(=O)C2CCCCN2)C(=O)N2CCC[C@H]2C(N)=O)c[nH]1 (single isomer, unassigned) | 8.40 | < 4.30 | 67.4% | 6.03 | < 4.30 | 235 | 
NC(=O)[C@@H]1CCCN1C(=O)[C@H](Cc1nc(I)n(Cc2ccccc2)c1I)NC(=O)c1cnccn1 | 7.52 | < 4.30 | 74.8% | 6.01 | < 4.30 | 32.6 | 
CCCc1nc(C[C@H](NC(=O)c2cnc(C)cn2)C(=O)N2CCC[C@H]2C(N)=O)c[nH]1 | 7.82 | < 4.30 | 4.1% | 7.77 | < 4.30 | 1.1 | 
NC(=O)[C@@H]1CCCN1C(=O)[C@H](Cc1c[nH]cn1)NC(=O)[C@@H]1CCC(=O)N1 [PROTIRELIN] |  |  | 51.1% |  |  | 1.9 | pEC50 ([3]; hek293): 9.00
NC(=O)[C@@H]1CCCN1C(=O)[C@H](Cc1nc[nH]c1Br)NC(=O)c1nccnc1N | 8.22 | < 4.30 | 29.5% | 6.54 | < 4.30 | 47.8 | 
NC(=O)[C@@H]1CCCN1C(=O)[C@H](Cc1nc(Br)[nH]c1Br)NC(=O)c1cnccn1 | 7.30 | < 4.30 | 74.8% | 5.60 | < 4.30 | 50.8 | Time (Rattus norvegicus [6]): 96 s; Activity (Rattus norvegicus [7]): Active; Time (Rattus norvegicus [8]): 167 s; Activity (Rattus norvegicus [9]): 2.25; Activity (Rattus norvegicus [10]): Non-toxic; Activity (Rattus norvegicus [11]): Active; Activity (Rattus norvegicus [12]): Active; Activity (Rattus norvegicus [13]): 196.08 mm3; Activity (Rattus norvegicus [14]): Active; Stability [15]: Stable; Time (Rattus norvegicus [16]): 36.31 s
CCCc1nc(C[C@H](NC(=O)c2cnccn2)C(=O)N2CCC[C@H]2C(N)=O)c[nH]1 | 7.22 | < 4.30 | 63.6% | 6.82 | < 4.30 | 2.5 | 
NC(=O)[C@@H]1CCCN1C(=O)[C@H](Cc1nc(I)[nH]c1I)NC(=O)c1cnccn1 | 6.51 | < 4.30 | 1.5% | 4.95 | < 4.30 | 36.3 | 
Cn1cnc(C[C@H](NC(=O)c2cnccn2)C(=O)N2CCC[C@H]2C(N)=O)c1Br | 7.52 | < 4.30 | 32.3% | 6.47 | < 4.30 | 11.3 | 
CCCc1nc(C[C@H](NC(=O)c2nccnc2N)C(=O)N2CCC[C@H]2C(N)=O)c[nH]1 | 6.92 | < 4.30 | 52.2% | 5.81 | < 4.30 | 10.5 | 
CCn1c(I)nc(C[C@H](NC(=O)c2cnccn2)C(=O)N2CCC[C@H]2C(N)=O)c1I | 6.02 | < 4.30 | 1.8% | 5.14 | < 4.30 | 7.5 | 
